In patent publication US12162867B2, “Inhibitors of RNA helicase DHX9 and uses thereof” (ACCENT THERAPEUTICS, INC., priority 2022, dated 2024):
pEC50: −log10 of the molar value.

The compounds below were run on circBRIP1 in HCT116 cells (assay: DHX9 circBRIP1 cellular target engagement SYBR Green assay (qPCR)). Conditions: Homo sapiens, HCT-116, circBRIP1, HCT116 cells; SyBr assay (marked ^+); read-out: DHX9 Cellular Target Engagement EC50.
Assay type: cell-based
A pEC50 of 6.47 was found for CS(=O)(=O)Nc1cc(Cl)cc(NC(=O)c2cnn(-c3ncc(F)cc3OCc3cccc(C#N)c3)c2)c1 [Example 203] in this work.
A pEC50 of 5.08 was found for CCS(=O)(=O)Nc1cc(F)cc(NC(=O)c2cc(-c3ccccc3)cs2)c1 [Example 74] in this work.
A pEC50 of 5.94 was found for CS(=O)(=O)Nc1cc(Cl)cc(NC(=O)c2cc3c(F)cccc3s2)c1 [Example 296] in this work.
A pEC50 of 5.88 was found for Cc1sc(C(=O)Nc2cc(Cl)cc(NS(C)(=O)=O)c2)cc1-c1ncccc1CC(=O)N(C)C [Example 385] in this work.
A pEC50 of less than 5.00 was found for Cn1nc(C(=O)Nc2cc(Cl)cc(NS(C)(=O)=O)c2)cc1-c1ccccc1OCc1ccccc1 [Example 138, 5-(2-(benzyloxy)phenyl)-N-(3-chloro-5-(methylsulfonamido)phenyl)-1-methyl-1H-pyrazole-3-carboxamide] in this work.
A pEC50 of 5.40 was found for Cc1ccc2cc(C(=O)Nc3cc(Cl)cc(NS(C)(=O)=O)c3)cn2c1 [Example 300] in this work.
A pEC50 of 6.25 was found for Cc1cccnc1-n1cc(C(=O)Nc2cc(Br)cc(NS(C)(=O)=O)c2)cc1C [Example 45] in this work.
A pEC50 of less than 5.00 was found for CS(=O)(=O)Nc1cc(Cl)cc(NC(=O)c2cc3cc(C(F)(F)F)ccc3s2)c1 [Example 326] in this work.
A pEC50 of 5.52 was found for CS(=O)(=O)Nc1cc(Br)cc(NC(=O)c2cnn(-c3cccc(C#N)c3)c2)c1 [Example 52] in this work.
A pEC50 of 6.56 was found for CS(=O)(=O)Nc1cc(Cl)cc(NC(=O)c2cnn(-c3ncccc3OCc3ccccc3)c2)c1 [Example 68] in this work.
A pEC50 of 5.94 was found for CN1CCC(c2ccc(-n3cc(C(=O)Nc4cc(Cl)cc(NS(C)(=O)=O)c4)cn3)nc2)CC1=O (stereo not shown) [Example 266] in this work.
A pEC50 of 5.45 was found for CS(=O)(=O)Nc1cc(Cl)cc(NC(=O)c2cnn(-c3ccccc3Oc3cccnc3)c2)c1 [Example 264] in this work.
A pEC50 of 6.34 was found for CS(=O)(=O)Nc1cc(Br)cc(NC(=O)c2cc(-c3cccnc3)cs2)c1 [Example 78] in this work.
A pEC50 of 5.27 was found for CS(=N)(=O)Nc1cc(Br)cc(NC(=O)c2cc(-c3ccccn3)cs2)c1 (stereo not shown) [Example 121, N-(3-bromo-5-(methylsulfonoamidimidamido)phenyl)-4-(pyridin-2-yl)thiophene-2-carboxamide] in this work.
A pEC50 of 5.89 was found for Cc1cccnc1-c1csc(C(=O)Nc2cc(Br)cc(NS(C)(=N)=O)c2)c1 (stereo not shown) [Example 122] in this work.
A pEC50 of 6.82 was found for CCS(=O)(=O)Nc1cc(Cl)cc(NC(=O)c2cc(-c3ncc(F)cn3)c(C)s2)c1 [Example 344] in this work.
A pEC50 of 5.30 was found for COC(=O)[C@@H]1CCCN1c1csc(C(=O)Nc2cc(Cl)cc(NS(C)(=O)=O)c2)c1 [Example 242] in this work.
A pEC50 of 5.41 was found for CS(=O)(=O)Nc1cc(Cl)cc(NC(=O)c2cccc(-n3cccn3)c2)c1 [Example 117] in this work.
A pEC50 of less than 5.00 was found for CS(=O)(=O)Nc1cc(Cl)cc(NC(=O)c2cnn([C@H]3CC[C@H]3O)c2)c1 (single isomer, unassigned) [Example 306b] in this work.
A pEC50 of 5.56 was found for Cc1cc(C(=O)Nc2cc(Br)cc(NS(C)(=O)=O)c2)cn1C1CCCCC1 [Example 85, N-(3-bromo-5-(methylsulfonamido)phenyl)-1-cyclohexyl-5-methyl-1H-pyrrole-3-carboxamide] in this work.
A pEC50 of 5.31 was found for CS(=O)(=O)Nc1cc(Cl)cc(NC(=O)c2cc3cnccn3c2)c1 [Example 330] in this work.
A pEC50 of 5.10 was found for CS(=O)(=O)Nc1cc(Cl)cc(NC(=O)c2cccc(-c3cccc(C#N)c3)c2)c1 [Example 13] in this work.

Same assay, conditions: Homo sapiens, HCT-116, circBRIP1, HCT116 cells; ^+ SyBr assay was used; read-out: DHX9 Cellular Target Engagement EC50
A pEC50 of 6.07 was found for CCS(=O)(=O)Nc1cc(Cl)cc(NC(=O)c2cc(-c3ncc(F)cn3)c(C3CC3)s2)c1 [Example 449] in this work.
A pEC50 of 6.84 was found for Cn1cc(C(=O)Nc2cc(Cl)cc(NS(C)(=O)=O)c2)cc1-c1ccc(C(F)(F)F)cn1 [Example 569] in this work.
A pEC50 of 6.85 was found for Cc1sc(C(=O)Nc2cc(Cl)cc(NS(C)(=O)=O)c2)cc1-c1cn(C2CCOCC2)nn1 [Example 692] in this work.
A pEC50 of 6.35 was found for CN1CCN(c2csc(C(=O)Nc3cc(Cl)cc(NS(C)(=O)=O)c3)c2)C1=O [Example 431] in this work.
A pEC50 of 6.09 was found for CS(=O)(=O)Nc1cc(Cl)cc(NC(=O)c2cnn(-c3ncccc3Oc3cccnc3)c2)c1 [Example 676] in this work.
A pEC50 of 6.90 was found for Cc1sc(C(=O)Nc2cc(Cl)cc(NS(C)(=O)=O)c2)cc1-c1ncc(F)cc1-c1cncc(F)c1 [Example 607] in this work.
